Key:
Progesterone receptor = molecular target: T1, Progesterone receptor (Homo sapiens, UniProt P06401); assay: Activation of progesterone receptor in human T47D cells at 1 uM after 20 hrs by PRE-tagged luciferase reporter gene assay; format: cell-based
T1 sequence (P06401 whole entry): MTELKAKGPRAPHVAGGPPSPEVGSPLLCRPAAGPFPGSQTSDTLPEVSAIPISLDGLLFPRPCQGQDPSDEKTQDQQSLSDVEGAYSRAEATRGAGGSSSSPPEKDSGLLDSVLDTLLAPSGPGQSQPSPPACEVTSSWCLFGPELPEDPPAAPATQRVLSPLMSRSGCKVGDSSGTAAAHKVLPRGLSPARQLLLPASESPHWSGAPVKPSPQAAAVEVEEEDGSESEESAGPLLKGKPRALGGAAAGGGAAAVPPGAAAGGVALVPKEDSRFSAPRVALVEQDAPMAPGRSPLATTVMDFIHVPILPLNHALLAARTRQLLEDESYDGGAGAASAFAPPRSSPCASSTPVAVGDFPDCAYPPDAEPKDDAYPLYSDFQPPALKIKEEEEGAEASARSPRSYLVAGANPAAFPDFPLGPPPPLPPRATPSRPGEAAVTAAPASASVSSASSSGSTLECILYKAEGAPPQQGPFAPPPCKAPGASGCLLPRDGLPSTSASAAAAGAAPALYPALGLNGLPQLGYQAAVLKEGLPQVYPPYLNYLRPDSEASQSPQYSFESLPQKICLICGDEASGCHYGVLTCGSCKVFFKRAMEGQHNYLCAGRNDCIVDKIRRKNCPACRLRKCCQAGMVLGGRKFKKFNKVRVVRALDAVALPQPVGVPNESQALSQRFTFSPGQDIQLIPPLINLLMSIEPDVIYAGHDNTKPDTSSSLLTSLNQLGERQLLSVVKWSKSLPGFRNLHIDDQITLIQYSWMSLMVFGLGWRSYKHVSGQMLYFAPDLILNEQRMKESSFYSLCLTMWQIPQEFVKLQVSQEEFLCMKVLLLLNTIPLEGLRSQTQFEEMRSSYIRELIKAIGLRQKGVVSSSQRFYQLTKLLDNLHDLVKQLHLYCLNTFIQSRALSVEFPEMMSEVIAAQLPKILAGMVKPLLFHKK

[1] = molecular target: T2, Progesterone receptor (Homo sapiens) (UniProt P06401); assay: Activation of progesterone receptor in human T47D cells after 20 hrs by PRE-tagged luciferase reporter gene assay relative to control; format: cell-based
T2 sequence (whole entry): T1 sequence (P06401 whole entry)

Structure (SMILES)	EC50 (Progesterone receptor)	Efficacy [1] [%]
CC1(C)[C@@H](O)CC[C@]2(C)[C@@]3(C)c4[nH]c5ccccc5c4C[C@@H]3CC[C@@]12O	Not Active	–
CO[C@H]1[C@H](O)[C@@H](O)[C@H](Oc2ccc3c4c([nH]c3c2)[C@@]2(C)[C@@H](CC[C@H]3C(C)(C)C(=O)C=C[C@@]32C)C4)O[C@@H]1CO	–	< 1
CC1(C)C(=O)C=C[C@]2(C)[C@@]3(C)c4[nH]c5ccccc5c4C[C@@H]3CC[C@@]12O	–	< 1

Source: ChEMBL document CHEMBL1154793, “The lecanindoles, nonsteroidal progestins from the terrestrial fungus Verticillium lecanii 6144” (J Nat Prod, 2009)
